For experiment [1], the target named is T1, glutathione S-transferase (GST)-fused full-length human Syk protein (Homo sapiens, UniProt P43405).
T1 construct: (GST)-fused full-length human Syk protein; GST (glutathione S-transferase); purchased Carna Biosciences
As to the kind of experiment: Syk enzyme assay. In kind it is biochemical. As to conditions: Syk enzyme assay, Test Example 1; read-out: IC50 of Syk-inhibitory activity. An outline of the steps: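 Baculovirus-expressed enzyme (1.2 ng) was preincubated with compound in HEPES pH 7.0/MgCl2/DTT buffer, 2 min shaking then 13 min at room temperature. Biotin-EDPDYEWPSA-NH2 (0.4 μM final) and ATP (27 μM final) were added for 40 min at room temperature. EDTA stop, streptavidin-XL/PT66-K TR-FRET at 615/665 nm gave IC50.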

In experiment [2] the test system is THP-1 cells. As to the kind of experiment: TNFα generation assay. The class given is cell-based, human. The note with it: Homo sapiens, THP-1, THP-1 cells; Table 22; read-out: IC50 in TNFα generation assay. In a few lines:
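Secreted TNFα in supernatant quantified by ELISA or AlphaLISA after 7 h culture on human IgG-coated wells (10 μg/ml coating). Cells were IFN-γ-differentiated THP-1 (10 ng/ml, 2 days), exposed to compound for 30 min at room temperature before plating.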

As for `CCC[C@@H](Nc1nc(Nc2ccc3c(cnn3CCOC)c2)c(C(N)=O)cc1F)[C@H](C)N` [Example 006-314, 6-(((2S,3R)-2-aminohexan-3-yl)amino)-5-fluoro-2-((1-(2-methoxyethyl)-1H-indazol-5-yl)amino)nicotinamide], the figures for the IC50 in experiment [1] and in experiment [2] were less than 10 nM and less than 65 nM, respectively.

On to `CC[C@@H](Nc1nc(Nc2ccnc(-c3cc(OC)ccc3F)c2)c(C(N)=O)cc1F)[C@H](C)N` [Example 006-315, 6-(((2S,3R)-2-aminopentan-3-yl)amino)-5-fluoro-2-((2-(2-fluoro-5-methoxyphenyl)pyridin-4-yl)amino)nicotinamide], for which the IC50 was less than 10 nM in experiment [1] and less than 65 nM in experiment [2].

As to `CC(C)C[C@H](CN)Nc1nc(Nc2cncc(-c3ccccc3F)c2)c(C(N)=O)cc1F` [Example 006-316, (R)-6-((1-amino-4-methylpentan-2-yl)amino)-5-fluoro-2-((5-(2-fluorophenyl)pyridin-3-yl)amino)nicotinamide], the IC50 in experiment [1] was 10 to 50 nM; in experiment [2], 130 to 200 nM.

On to `COc1cccc(-c2cncc(Nc3nc(N[C@@H](CN)CC(C)C)c(F)cc3C(N)=O)c2)c1` [Example 006-317, (R)-6-((1-amino-4-methylpentan-2-yl)amino)-5-fluoro-2-((5-(3-methoxyphenyl)pyridin-3-yl)amino)nicotinamide], for which the IC50 is less than 10 nM in experiment [1] and 130 to 200 nM in experiment [2].

Consider `COc1cccc(-c2cncc(Nc3nc(N[C@@H](CN)CC(C)C)c(F)cc3C(N)=O)c2)c1F` [Example 006-318, (R)-6-((1-amino-4-methylpentan-2-yl)amino)-5-fluoro-2-((5-(2-fluoro-3-methoxyphenyl)pyridin-3-yl)amino)nicotinamide], for which the IC50 lay in the range of 10 to 50 nM in experiment [1] and 130 to 200 nM in experiment [2].

With `COc1ccc(F)c(-c2cc(Nc3nc(N[C@@H](CN)CC(C)C)c(F)cc3C(N)=O)ccn2)c1` [Example 006-321, (R)-6-((1-amino-4-methylpentan-2-yl)amino)-5-fluoro-2-((2-(2-fluoro-5-methoxyphenyl)pyridin-4-yl)amino)nicotinamide], the results for the IC50 in experiment [1] and in experiment [2] were less than 10 nM and 130 to 200 nM, respectively.

For `CCCC[C@H](CN)Nc1nc(Nc2ccc3c(cnn3CC)c2)c(C(N)=O)cc1F` [Example 006-323, (R)-6-((1-aminohexan-2-yl)amino)-2-((1-ethyl-1H-indazol-5-yl)amino)-5-fluoronicotinamide], the IC50 in experiment [1] is less than 10 nM; in experiment [2] it was 65 to 130 nM.

In the case of `CC(C)C[C@H](CN)Nc1nc(Nc2ccnc(-c3ccccc3F)c2)c(C(N)=O)cc1F` [Example 006-324, (R)-6-((1-amino-4-methylpentan-2-yl)amino)-5-fluoro-2-((2-(2-fluorophenyl)pyridin-4-yl)amino)nicotinamide], the IC50 in experiment [1] was less than 10 nM; in experiment [2], 130 to 200 nM.

As for `CC[C@@H](Nc1nc(Nc2ccnc(-c3ccccc3F)c2)c(C(N)=O)cc1F)[C@H](C)N` [Example 006-329, 6-(((2S,3R)-2-aminopentan-3-yl)amino)-5-fluoro-2-((2-(2-fluorophenyl)pyridin-4-yl)amino)nicotinamide], the results for the IC50 in experiment [1] and in experiment [2] were less than 10 nM and less than 65 nM, respectively.

For `CC[C@@H](Nc1nc(Nc2ccnc(-c3cccc(OC)c3)c2)c(C(N)=O)cc1F)[C@H](C)N` [Example 006-330, 6-(((2S,3R)-2-aminopentan-3-yl)amino)-5-fluoro-2-((2-(3-methoxyphenyl)pyridin-4-yl)amino)nicotinamide], the IC50 in experiment [1] is less than 10 nM; in experiment [2] it was less than 65 nM.

Turning to `CC[C@@H](Nc1nc(Nc2ccnc(-c3ccc(OC)cc3)c2)c(C(N)=O)cc1F)[C@H](C)N` [Example 006-331, 6-(((2S,3R)-2-aminopentan-3-yl)amino)-5-fluoro-2-((2-(4-methoxyphenyl)pyridin-4-yl)amino)nicotinamide], the IC50 in experiment [1] was less than 10 nM; in experiment [2] it was 65 to 130 nM.

As to `CC[C@@H](Nc1nc(Nc2ccnc(-c3ccc(OC)cc3F)c2)c(C(N)=O)cc1F)[C@H](C)N` [Example 006-332, 6-(((2S,3R)-2-aminopentan-3-yl)amino)-5-fluoro-2-((2-(2-fluoro-4-methoxyphenyl)pyridin-4-yl)amino)nicotinamide], the IC50 in experiment [1] was less than 10 nM; in experiment [2], less than 65 nM.

In the case of `CCC[C@@H](Nc1nc(Nc2ccnc(-c3ccccc3F)c2)c(C(N)=O)cc1F)[C@H](C)N` [Example 006-333, 6-(((2S,3R)-2-aminohexan-3-yl)amino)-5-fluoro-2-((2-(2-fluorophenyl)pyridin-4-yl)amino)nicotinamide], the results for the IC50 in experiment [1] and in experiment [2] were less than 10 nM and 65 to 130 nM, respectively.

On to `CCC[C@@H](Nc1nc(Nc2ccnc(-c3cccc(OC)c3)c2)c(C(N)=O)cc1F)[C@H](C)N` [Example 006-334, 6-(((2S,3R)-2-aminohexan-3-yl)amino)-5-fluoro-2-((2-(3-methoxyphenyl)pyridin-4-yl)amino)nicotinamide], for which the IC50 in experiment [1] is less than 10 nM; in experiment [2], 65 to 130 nM.

With `CCC[C@@H](Nc1nc(Nc2ccnc(-c3ccc(OC)cc3)c2)c(C(N)=O)cc1F)[C@H](C)N` [Example 006-335, 6-(((2S,3R)-2-aminohexan-3-yl)amino)-5-fluoro-2-((2-(4-methoxyphenyl)pyridin-4-yl)amino)nicotinamide], the IC50 is less than 10 nM in experiment [1] and 130 to 200 nM in experiment [2].

With `CCC[C@@H](Nc1nc(Nc2ccnc(-c3ccc(OC)cc3F)c2)c(C(N)=O)cc1F)[C@H](C)N` [Example 006-336, 6-(((2S,3R)-2-aminohexan-3-yl)amino)-5-fluoro-2-((2-(2-fluoro-4-methoxyphenyl)pyridin-4-yl)amino)nicotinamide], the IC50 was less than 10 nM in experiment [1] and 130 to 200 nM in experiment [2].

Regarding `CCCC[C@H](CN)Nc1nc(Nc2ccc3c(cnn3CCOC)c2)c(C(N)=O)cc1F` [Example 006-338, (R)-6-((1-aminohexan-2-yl)amino)-5-fluoro-2-((1-(2-methoxyethyl)-1H-indazol-5-yl)amino)nicotinamide], the IC50 in experiment [1] lay in the range of 10 to 50 nM; in experiment [2] it was 65 to 130 nM.

In the case of `COCCn1ncc2cc(Nc3nc(N[C@H](CC4CC4)[C@H](C)N)c(F)cc3C(N)=O)ccc21` [Example 006-343, 6-(((2R,3S)-3-amino-1-cyclopropylbutan-2-yl)amino)-5-fluoro-2-((1-(2-methoxyethyl)-1H-indazol-5-yl)amino)nicotinamide], the IC50 in experiment [1] is less than 10 nM; in experiment [2], 65 to 130 nM.

As for `C[C@H](N)[C@@H](CC1CC1)Nc1nc(Nc2ccc3c(cnn3C)c2)c(C(N)=O)cc1F` [Example 006-345, 6-(((2R,3S)-3-amino-1-cyclopropylbutan-2-yl)amino)-5-fluoro-2-((1-methyl-1H-indazol-5-yl)amino)nicotinamide], the IC50 in experiment [1] is less than 10 nM; in experiment [2] it was 65 to 130 nM.

As to `COc1ccc2cc(Nc3nc(N[C@H](CC4CC4)[C@H](C)N)c(F)cc3C(N)=O)cnc2c1` [Example 006-346, 6-(((2R,3S)-3-amino-1-cyclopropylbutan-2-yl)amino)-5-fluoro-2-((7-methoxyquinolin-3-yl)amino)nicotinamide], the IC50 in experiment [1] is less than 10 nM; in experiment [2] it was 130 to 200 nM.

With `C[C@H](N)[C@@H](CC1CC1)Nc1nc(Nc2ccc3scnc3c2)c(C(N)=O)cc1F` [Example 006-348, 6-(((2R,3S)-3-amino-1-cyclopropylbutan-2-yl)amino)-2-(benzo[d]thiazol-5-ylamino)-5-fluoronicotinamide], the values for the IC50 in experiment [1] and in experiment [2] were 10 to 50 nM and 65 to 130 nM, respectively.

`C[C@H](N)[C@@H](CC1CC1)Nc1nc(Nc2cncc(C3CC3)c2)c(C(N)=O)cc1F` [Example 006-350, 6-(((2R,3S)-3-amino-1-cyclopropylbutan-2-yl)amino)-2-((5-cyclopropylpyridin-3-yl)amino)-5-fluoronicotinamide]: the IC50 in experiment [1] is less than 10 nM; in experiment [2], 65 to 130 nM.

As to `C[C@H](N)[C@@H](CC1CC1)Nc1nc(Nc2cncc(-c3ccccc3)c2)c(C(N)=O)cc1F` [Example 006-351, 6-(((2R,3S)-3-amino-1-cyclopropylbutan-2-yl)amino)-5-fluoro-2-((5-phenylpyridin-3-yl)amino)nicotinamide], the values for the IC50 in experiment [1] and in experiment [2] were less than 10 nM and 65 to 130 nM, respectively.

Take `C[C@H](N)[C@@H](CC1CC1)Nc1nc(Nc2cncc(-n3nccn3)c2)c(C(N)=O)cc1F` [Example 006-352, 2-((5-(2H-1,2,3-triazol-2-yl)pyridin-3-yl)amino)-6-(((2R,3S)-3-amino-1-cyclopropylbutan-2-yl)amino)-5-fluoronicotinamide]: the IC50 in experiment [1] is less than 10 nM; in experiment [2] it was less than 65 nM.

Turning to `C[C@H](N)[C@@H](CC1CC1)Nc1nc(Nc2ccnc(-n3cncn3)c2)c(C(N)=O)cc1F` [Example 006-353, 2-((2-(1H-1,2,4-triazol-1-yl)pyridin-4-yl)amino)-6-(((2R,3S)-3-amino-1-cyclopropylbutan-2-yl)amino)-5-fluoronicotinamide], the IC50 in experiment [1] was less than 10 nM; in experiment [2], less than 65 nM.

In the case of `C[C@H](N)[C@@H](CC1CC1)Nc1nc(Nc2cncc3ccccc23)c(C(N)=O)cc1F` [Example 006-354, 6-(((2R,3S)-3-amino-1-cyclopropylbutan-2-yl)amino)-5-fluoro-2-((isoquinolin-4-yl)amino)nicotinamide], the IC50 in experiment [1] was less than 10 nM; in experiment [2] it was 65 to 130 nM.

For the compound `COc1cc(Nc2nc(N[C@H](CC3CC3)[C@H](C)N)c(F)cc2C(N)=O)ccn1` [Example 006-355, 6-(((2R,3S)-3-amino-1-cyclopropylbutan-2-yl)amino)-5-fluoro-2-((2-methoxypyridin-4-yl)amino)nicotinamide], the IC50 in experiment [1] is less than 10 nM; in experiment [2], 65 to 130 nM.
